Measurements reported in patent US9463213B2, “Use of degarelix in the treatment of endometriosis and related diseases” (priority 2012, dated 2016).

Columns and labels:
[1] = system: women with recurrent endometriosis after surgery; experiment: Example 1: clinical comparison of single-dose degarelix with monthly leuprolide acetate in recurrent endometriosis; type: in vivo; settings: for Disappearance of pain: degarelix acetate 80 mg single s.c. injection vs leuprolide acetate 3.75 mg s.c. monthly, 15 patients per group; for Disappearance of symptoms at the end of treatment / Recurrence six months after the end of treatment / CA-125 after 2 months / CA-125 at the end of treatment: degarelix acetate 80 mg single s.c. vs leuprolide acetate 3.75 mg s.c. monthly; for CA-125 after 2 months / CA-125 at the end of treatment: plasma
Method: In this experiment the use of degarelix was studied, administered in a dose of 80 mg in a single infusion, with an effect which lasted for at least 4 months (period of amenorrhea and hypoestrogenism), comparing this with the effect of treatment with leuprolide acetate GnRH-agonist administered in a dose of 3.75 mg per month for at least 6 months in women with recurrent endometriosis after surgery and post-surgery treatment with estro-progestins. 30 women divided into two groups of 15 patients each, with recurrent endometriosis after previous surgery for endometriotic cysts, in whom new ovarian cysts, pelvic pain and a rise in plasma CA125 values occurred, were included in the study. One group of patients was treated with 80 mg degarelix acetate in a single subcutaneous injection (Firmagon 80 mg, company Ferring) on the first day of the menstrual cycle, while the other group was treated with leuprolide acetate (Enantone 3.75, Takeda) in a dose of 3.75 mg subcutaneously every month for four months. Both the groups were monitored for FSH, LH, estradiol, androstenedione, dehydroandrostenedione (DEA) and CA125, with plasma doses every fifteen days starting from the day following administration of the drug. Pelvic pain levels experienced by the patients during treatment and during the six months following suspension of the treatment were also evaluated using a “Visual Analogue Scale” (VAS) in which the patient expressed the level of pain experienced on a 10 cm scale.

[2] = system: patients suffering from endometriosis with bilateral ovarian cysts; experiment: Example 2: degarelix before assisted reproduction in patients with bilateral endometriotic ovarian cysts; type: in vivo
Method: In this experiment, 12 patients suffering from endometriosis with the presence of bilateral ovarian cysts who wished to receive a cycle of assisted reproduction underwent, prior to undergoing controlled ovarian hyperstimulation, treatment with 80 mg degarelix acetate in a single administration 4 months before the assisted reproduction cycle, in order to evaluate the efficacy of this treatment on the reduction and/or disappearance of the ovarian cysts without performing surgery. 12 patients with bilateral endometriotic cysts (cysts larger than 3 cm) and high plasma CA125 (over 60 IU/ml) were selected. 80 mg degarelix acetate (Firmagon 80 mg) was injected into the patients on the first day of the cycle and the patients were then monitored for FSH, LH and estradiol values every 20 days, with an echography check to evaluate the dimensions of the cysts.

[3] = system: patients with severe endometriosis; settings: 80 mg monthly for three months; cited from earlier work
[4] = system: healthy women volunteers; settings: injection of 2.5 mg; cited from earlier work
[5] = 80 mg single dose vs leuprolide acetate, P<0.01

CCNC(=O)[C@@H]1CCCN1C(=O)[C@H](CCCNC(=N)N)NC(=O)[C@H](CC(C)C)NC(=O)[C@@H](CC(C)C)NC(=O)[C@H](Cc1ccc(O)cc1)NC(=O)[C@H](CO)NC(=O)[C@H](Cc1c[nH]c2ccccc12)NC(=O)[C@H](Cc1c[nH]cn1)NC(=O)[C@@H]1CCC(=O)N1 [Leuprolide acetate, leuprolide acetate]
Disappearance of pain [1]: 3.8 ± 0.8
Disappearance of symptoms at the end of treatment [1]: 60.0%
Recurrence six months after the end of treatment [1]: 33.3%
CA-125 after 2 months [1]: 52.6 ± 31.5
CA-125 at the end of treatment [1]: 34.0 ± 12.7

degarelix acetate
Volume of the endometriotic cysts ([2]; 80 mg single administration, 3 months after treatment, echography): decreased significantly
Levels of FSH, LH and estradiol 3 months after treatment (FIG. 6) ([2]; 80 mg single administration, 12 patients): low levels
Patients with complete disappearance of endometriotic cysts ([2]; 80 mg single administration, of 12 patients): at least 4 patients
Pregnancy achieved ([2]; after 80 mg single administration and assisted reproduction cycle, of 12 patients): 5 cases
Recurrence of endometriotic cysts during ovarian stimulation with oocyte sampling ([2]; after 80 mg single administration, all patients): without showing any recurrence of endometriotic cysts
Effect on pain and endometriosis recurrence [3]: reduction of pain and endometriosis recurrence
Duration of effect (period of amenorrhea and hypoestrogenism) ([1]; 80 mg in a single infusion): at least 4 months
Control of painful symptoms (VAS) compared with GnRH agonist (FIG. 5) ([1]; 80 mg single dose vs leuprolide acetate): better control of painful symptoms
Estradiol and androgen levels compared with GnRH agonist (FIGS. 2-4) [1, 5]: lower levels of estradiol
Suppression of LH and FSH compared with GnRH agonist (FIG. 1) [1, 5]: More rapid and stable suppression of LH and FSH
Disappearance of pain [1]: 1.4 ± 0.3
Disappearance of symptoms at the end of treatment [1]: 93.3%
Recurrence six months after the end of treatment [1]: 6.6%
CA-125 after 2 months [1]: 32.4 ± 21.4
CA-125 at the end of treatment [1]: 12.6 ± 10.1
Duration of stable suppression of FSH, LH, estradiol and androgen levels ([1]; single administration of 80 mg): 4 months
Effect on LH and FSH release [4]: immediate suppression of LH and FSH release
Time required for LH and FSH to return to base levels [4]: approximately 7 days
